Activity calls are given as the source filed them.
How the values were obtained:
[1] = target: T1, DNA repair and recombination protein RAD54-like (Homo sapiens, UniProt Q92698); experiment: inhibitors of human RAD54 branch migration, confirmation, biochemical, fluorescence, cherry-picked samples, dose series (AID 651657); format: functional
T1 sequence (Q92698 whole entry): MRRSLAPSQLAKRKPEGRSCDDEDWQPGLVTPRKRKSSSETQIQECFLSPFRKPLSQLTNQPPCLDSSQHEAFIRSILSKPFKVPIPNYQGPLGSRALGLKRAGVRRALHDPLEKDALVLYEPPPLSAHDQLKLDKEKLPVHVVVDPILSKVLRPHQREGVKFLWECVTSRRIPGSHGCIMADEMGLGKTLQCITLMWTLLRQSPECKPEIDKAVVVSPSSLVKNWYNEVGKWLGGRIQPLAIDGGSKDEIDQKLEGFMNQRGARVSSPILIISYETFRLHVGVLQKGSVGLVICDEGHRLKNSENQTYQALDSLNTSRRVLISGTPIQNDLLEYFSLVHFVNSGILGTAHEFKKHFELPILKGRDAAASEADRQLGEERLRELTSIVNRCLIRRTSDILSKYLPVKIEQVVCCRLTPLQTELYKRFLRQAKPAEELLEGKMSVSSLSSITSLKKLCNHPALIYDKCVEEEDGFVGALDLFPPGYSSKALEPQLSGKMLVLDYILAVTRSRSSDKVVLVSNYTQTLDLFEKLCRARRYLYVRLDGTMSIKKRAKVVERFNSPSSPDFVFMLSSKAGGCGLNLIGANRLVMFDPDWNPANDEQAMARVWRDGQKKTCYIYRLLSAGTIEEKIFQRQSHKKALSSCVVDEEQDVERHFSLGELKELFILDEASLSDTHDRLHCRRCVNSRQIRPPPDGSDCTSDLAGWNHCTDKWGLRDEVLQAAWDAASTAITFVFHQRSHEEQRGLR

Cytochrome P450 2D6 = Cytochrome P450 2D6 (Homo sapiens, UniProt P10635);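 further: CYP2D6 member of a cytochrome P450 panel assay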
[2] = target: Glucose-6-phosphate 1-dehydrogenase (Homo sapiens, UniProt P11413); experiment: human G6PD enzyme inhibitors, dose response, selectivity assay for P. falciparum G6PD inhibitor project, biochemical, fluorescence (AID 504792); format: functional
[3] = target: Ras and Rab interactor 1/Tyrosine-protein kinase ABL1 (Homo sapiens, UniProt P00519+Q13671); format: functional;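 further: biochemical TR-FRET dose-response test measuring inhibition of binding between Rin1 and Abl proteins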
Genome polyprotein = Genome polyprotein (dengue virus type 2, UniProt P29990); experiment: Dengue-2 NS5 methyltransferase inhibitors, primary screen, biochemical, confirmation dose response (AID 588689); format: functional
[4] = target: Beta-2 adrenergic receptor (Homo sapiens, UniProt P07550); experiment: beta2AR agonists driving receptor internalization, dose response, cell-based, FAP fluorogen, flow cytometry, cherry pick 1 (AID 588763); format: functional
Cytochrome P450 3A4 = Cytochrome P450 3A4 (Homo sapiens, UniProt P08684);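 further: CYP3A4 tested as one member of a cytochrome P450 panel screen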
[5] = target: T2, Corticotropin-releasing factor receptor 2/Corticotropin-releasing factor-binding protein (Homo sapiens, UniProt P24387+Q13324); experiment: activators of CRF receptor 2 with binding protein – uHTS hits, confirmation (AID 602473); format: functional; details: read-out: EC50_Mean
T2 sequence (Q13324 whole entry): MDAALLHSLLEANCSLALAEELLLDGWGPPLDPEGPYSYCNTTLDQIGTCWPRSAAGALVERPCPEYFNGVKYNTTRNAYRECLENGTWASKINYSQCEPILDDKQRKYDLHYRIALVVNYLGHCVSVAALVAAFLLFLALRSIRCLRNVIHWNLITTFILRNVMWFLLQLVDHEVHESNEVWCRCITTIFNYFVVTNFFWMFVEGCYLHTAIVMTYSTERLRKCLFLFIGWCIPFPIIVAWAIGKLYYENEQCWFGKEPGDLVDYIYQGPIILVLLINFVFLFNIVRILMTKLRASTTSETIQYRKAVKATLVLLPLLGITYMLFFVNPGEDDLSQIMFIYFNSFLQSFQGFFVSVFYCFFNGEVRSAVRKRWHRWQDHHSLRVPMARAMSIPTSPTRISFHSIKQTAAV
T2 sequence (P24387 whole entry): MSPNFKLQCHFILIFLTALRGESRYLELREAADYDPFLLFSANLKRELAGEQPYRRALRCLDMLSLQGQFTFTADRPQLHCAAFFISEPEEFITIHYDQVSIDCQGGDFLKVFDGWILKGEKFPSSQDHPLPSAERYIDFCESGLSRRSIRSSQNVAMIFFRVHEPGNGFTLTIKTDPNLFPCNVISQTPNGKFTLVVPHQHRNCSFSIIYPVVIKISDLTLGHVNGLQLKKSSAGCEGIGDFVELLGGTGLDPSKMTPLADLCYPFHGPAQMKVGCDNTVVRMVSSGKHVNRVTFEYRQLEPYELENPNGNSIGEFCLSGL

[6] = target: T3, Endoribonuclease toxin MazF (Escherichia coli K-12, UniProt P0AE70); experiment: fluorescent RNA oligo signal without MazF, dose response, counter-screen for MazEF activator project, biochemical, fluorescence, single-stranded RNase substrate (AID 588502); format: functional
T3 sequence (P0AE70 whole entry): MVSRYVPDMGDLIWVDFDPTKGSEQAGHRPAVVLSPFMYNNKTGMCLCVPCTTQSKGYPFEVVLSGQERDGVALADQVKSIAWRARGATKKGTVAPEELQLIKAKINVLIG

[7] = target: T4, Zinc finger protein mex-5 (Caenorhabditis elegans, UniProt Q9XUB2); experiment: MEX-5/TCR-2 RNA interaction inhibitors, dose response, biochemical, C. elegans, fluorescence polarization (AID 1960)
T4 sequence (Q9XUB2 whole entry): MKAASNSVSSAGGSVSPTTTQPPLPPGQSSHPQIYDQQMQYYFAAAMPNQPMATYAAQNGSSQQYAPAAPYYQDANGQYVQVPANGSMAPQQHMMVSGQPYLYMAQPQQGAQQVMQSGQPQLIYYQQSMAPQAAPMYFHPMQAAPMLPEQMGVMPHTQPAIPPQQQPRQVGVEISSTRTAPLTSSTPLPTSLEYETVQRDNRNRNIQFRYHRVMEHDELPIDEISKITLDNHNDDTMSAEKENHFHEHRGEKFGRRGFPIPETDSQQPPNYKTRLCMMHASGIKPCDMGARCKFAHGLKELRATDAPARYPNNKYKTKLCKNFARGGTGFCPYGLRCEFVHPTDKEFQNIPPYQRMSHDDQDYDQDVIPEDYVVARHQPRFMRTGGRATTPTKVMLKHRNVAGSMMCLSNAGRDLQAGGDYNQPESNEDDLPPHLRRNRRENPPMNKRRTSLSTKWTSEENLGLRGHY

Cytochrome P450 2C9 = Cytochrome P450 2C9 (Homo sapiens, UniProt P11712)
[8] = target: T5, RNA-binding protein pos-1 (Caenorhabditis elegans, UniProt G5EF15); experiment: inhibitors of POS-1/mex-3 RNA binding, dose response, biochemical, fluorescence polarization (AID 1964);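 further: purified POS-1 fused to maltose binding protein made in E. coli; potency of compounds blocking POS-1 binding to fluorescent RNA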
T5 sequence (G5EF15 whole entry): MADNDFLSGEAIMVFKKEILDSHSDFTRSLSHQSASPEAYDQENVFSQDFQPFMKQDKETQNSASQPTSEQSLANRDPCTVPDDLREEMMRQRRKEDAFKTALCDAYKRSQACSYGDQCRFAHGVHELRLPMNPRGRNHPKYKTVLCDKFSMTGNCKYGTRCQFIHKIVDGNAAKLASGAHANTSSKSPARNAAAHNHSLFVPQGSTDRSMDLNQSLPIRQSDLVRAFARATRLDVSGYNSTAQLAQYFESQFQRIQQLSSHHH

[9] = target: T3, Endoribonuclease toxin MazF; experiment: MazF toxin RNase activators, dose response, biochemical, fluorescence, single-stranded RNA substrate, uHTS hits (AID 588481); format: functional
[10] = ARNT/TACC3 interaction disruptors, potency, confirmation, biochemical, AlphaScreen, cherry-picked samples (AID 651703); format: functional, Homo sapiens;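 further: His-tagged ARNT PAS-B domain paired with GST-TACC3 E629A dimer coactivator fragment; potency of inhibitors that break up the complex and lower AlphaScreen signal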
Paired box protein Pax-8 = Paired box protein Pax-8 (Homo sapiens, UniProt Q06710); experiment: inhibitors of PAX8-driven TPO luciferase reporter, dose response, RMG-I cells, cherry-pick (AID 687027); format: functional, cell-based;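 further: luciferase reporter driven by Pax8 target thyroperoxidase promoter measured by SteadyGlo luminescence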
Cytochrome P450 2C19 = Cytochrome P450 2C19 (Homo sapiens, UniProt P33261); experiment: Cytochrome panel assay with activity outcomes. Panel member name: p450-cyp2c19 Compounds with AC50 equal or less than 10 uM are considered active; format: functional
HEK293 [11] = experiment: cells; format: functional, cell-based; details: Homo sapiens
HEK293 [12] = experiment: NOD2 signaling inhibitors in MDP-stimulated cells, cell-based, uHTS, luminescence (AID 2001); format: functional; details: Homo sapiens
[13] = cytotoxicity toward NIH3T3 fibroblasts, dose response, counter-screen, cell-based, ATP luminescence, mouse fibroblasts (AID 2010); format: functional;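 further: cells exposed to compound for about 90 hours before reading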
HEK293 [14] = experiment: cells; format: functional, cell-based; details: Homo sapiens; remark: listed apart in the source
[15] = inhibitors of intracellular T. cruzi replication, confirmation, NIH3T3 host cells, beta-gal luminescence (AID 2044); format: functional, cell-based;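 further: intracellular parasites grown in NIH/3T3 mouse fibroblasts as host cells; luminescent beta-galactosidase reporter signal from transgenic T. cruzi replicating inside host cells; inhibitors lower the luminescence signal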
[16] = target: Nucleotide-binding oligomerization domain-containing protein 2 (Homo sapiens, UniProt Q9HC29); experiment: NOD2 signaling inhibitors, cell-based, luminescence, uHTS, HEK293 (AID 1566); format: functional
HEK293 [17] = experiment: cells; format: functional, cell-based; details: Homo sapiens; remark: listed apart in the source
HEK293 [18] = experiment: NOD1 signaling inhibitors, primary screen, cell-based, luminescence, uHTS (AID 1578); format: functional; details: Homo sapiens
Fatty acid synthase [19] = target: T6, Fatty acid synthase (Homo sapiens, UniProt P49327); experiment: FAS thioesterase domain inhibitors, dose response, biochemical, endpoint fluorescence intensity, uHTS hits (AID 624327); format: functional;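 further: fluorescence from hydrolysis of an O-methyl fluorescein acyl ester substrate by the enzyme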
Fatty acid synthase [20] = target: T6, Fatty acid synthase; experiment: FAS thioesterase domain inhibitors, dose response, biochemical, kinetic fluorescence intensity (AID 624326); format: functional;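 further: rate of fluorescence rise from hydrolysis of a fluorogenic O-methyl fluorescein ester substrate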

Sequence of Ras and Rab interactor 1/Tyrosine-protein kinase ABL1 (P00519 whole entry): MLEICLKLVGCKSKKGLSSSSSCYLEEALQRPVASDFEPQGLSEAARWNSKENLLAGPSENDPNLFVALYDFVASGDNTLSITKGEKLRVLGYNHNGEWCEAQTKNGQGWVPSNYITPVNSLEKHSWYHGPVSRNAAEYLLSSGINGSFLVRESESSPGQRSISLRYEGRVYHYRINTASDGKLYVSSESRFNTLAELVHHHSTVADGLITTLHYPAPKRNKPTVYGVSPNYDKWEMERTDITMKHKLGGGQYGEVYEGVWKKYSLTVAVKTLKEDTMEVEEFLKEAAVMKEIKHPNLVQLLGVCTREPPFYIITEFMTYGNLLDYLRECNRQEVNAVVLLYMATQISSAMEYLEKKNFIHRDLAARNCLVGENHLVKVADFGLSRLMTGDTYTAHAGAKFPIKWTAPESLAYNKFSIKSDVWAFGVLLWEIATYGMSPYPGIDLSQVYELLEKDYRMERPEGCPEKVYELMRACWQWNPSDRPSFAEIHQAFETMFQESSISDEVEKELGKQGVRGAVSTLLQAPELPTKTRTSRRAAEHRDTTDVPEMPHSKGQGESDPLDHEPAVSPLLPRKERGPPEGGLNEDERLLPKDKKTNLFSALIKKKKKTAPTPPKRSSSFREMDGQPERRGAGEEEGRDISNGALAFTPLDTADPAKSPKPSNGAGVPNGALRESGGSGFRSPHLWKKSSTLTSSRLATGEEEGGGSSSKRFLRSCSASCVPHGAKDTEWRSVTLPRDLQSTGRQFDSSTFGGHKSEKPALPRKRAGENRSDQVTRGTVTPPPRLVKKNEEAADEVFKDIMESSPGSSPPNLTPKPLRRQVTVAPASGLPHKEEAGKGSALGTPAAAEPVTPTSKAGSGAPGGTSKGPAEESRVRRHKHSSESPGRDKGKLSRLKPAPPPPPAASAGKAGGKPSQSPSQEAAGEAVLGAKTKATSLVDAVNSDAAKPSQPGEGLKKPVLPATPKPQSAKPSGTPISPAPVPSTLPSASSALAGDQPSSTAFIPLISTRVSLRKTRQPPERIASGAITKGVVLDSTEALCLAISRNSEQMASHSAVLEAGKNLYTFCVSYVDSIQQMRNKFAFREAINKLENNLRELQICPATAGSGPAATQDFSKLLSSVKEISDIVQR
Sequence of Ras and Rab interactor 1/Tyrosine-protein kinase ABL1 (Q13671 whole entry): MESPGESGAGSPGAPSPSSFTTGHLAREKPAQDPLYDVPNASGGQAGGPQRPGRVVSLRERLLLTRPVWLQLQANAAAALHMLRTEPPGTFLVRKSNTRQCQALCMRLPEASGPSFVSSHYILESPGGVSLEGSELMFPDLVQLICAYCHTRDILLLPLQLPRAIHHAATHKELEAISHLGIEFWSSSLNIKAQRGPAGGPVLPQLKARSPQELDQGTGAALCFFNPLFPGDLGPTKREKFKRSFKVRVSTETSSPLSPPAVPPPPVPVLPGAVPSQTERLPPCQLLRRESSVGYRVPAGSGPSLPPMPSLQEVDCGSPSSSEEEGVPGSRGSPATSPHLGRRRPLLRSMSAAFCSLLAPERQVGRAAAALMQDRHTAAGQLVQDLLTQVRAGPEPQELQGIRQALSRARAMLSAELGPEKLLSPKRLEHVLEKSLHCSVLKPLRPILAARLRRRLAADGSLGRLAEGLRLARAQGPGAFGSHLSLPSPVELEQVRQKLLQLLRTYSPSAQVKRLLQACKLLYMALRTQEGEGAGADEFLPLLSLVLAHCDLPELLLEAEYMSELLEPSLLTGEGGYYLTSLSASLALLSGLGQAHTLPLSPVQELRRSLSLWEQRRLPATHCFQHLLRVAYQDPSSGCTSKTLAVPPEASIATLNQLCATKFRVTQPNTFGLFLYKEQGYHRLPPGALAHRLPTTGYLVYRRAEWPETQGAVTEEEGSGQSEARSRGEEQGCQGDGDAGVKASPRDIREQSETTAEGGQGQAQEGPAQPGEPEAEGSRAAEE
Sequence of Cytochrome P450 2D6 (P10635 whole entry): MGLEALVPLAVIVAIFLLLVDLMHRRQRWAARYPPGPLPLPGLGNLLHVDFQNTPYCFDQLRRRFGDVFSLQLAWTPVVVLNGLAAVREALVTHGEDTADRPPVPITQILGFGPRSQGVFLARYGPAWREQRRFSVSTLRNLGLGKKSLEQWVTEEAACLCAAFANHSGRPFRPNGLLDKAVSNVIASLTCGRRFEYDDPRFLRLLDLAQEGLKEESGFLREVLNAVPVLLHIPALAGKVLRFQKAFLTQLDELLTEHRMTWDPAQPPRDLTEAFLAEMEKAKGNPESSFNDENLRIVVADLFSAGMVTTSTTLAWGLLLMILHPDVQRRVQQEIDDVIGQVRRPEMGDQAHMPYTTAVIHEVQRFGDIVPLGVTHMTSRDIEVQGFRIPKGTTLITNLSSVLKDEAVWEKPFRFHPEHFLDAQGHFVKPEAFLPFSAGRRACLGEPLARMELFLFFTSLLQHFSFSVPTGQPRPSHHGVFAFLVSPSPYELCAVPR
Sequence of Glucose-6-phosphate 1-dehydrogenase (P11413 whole entry): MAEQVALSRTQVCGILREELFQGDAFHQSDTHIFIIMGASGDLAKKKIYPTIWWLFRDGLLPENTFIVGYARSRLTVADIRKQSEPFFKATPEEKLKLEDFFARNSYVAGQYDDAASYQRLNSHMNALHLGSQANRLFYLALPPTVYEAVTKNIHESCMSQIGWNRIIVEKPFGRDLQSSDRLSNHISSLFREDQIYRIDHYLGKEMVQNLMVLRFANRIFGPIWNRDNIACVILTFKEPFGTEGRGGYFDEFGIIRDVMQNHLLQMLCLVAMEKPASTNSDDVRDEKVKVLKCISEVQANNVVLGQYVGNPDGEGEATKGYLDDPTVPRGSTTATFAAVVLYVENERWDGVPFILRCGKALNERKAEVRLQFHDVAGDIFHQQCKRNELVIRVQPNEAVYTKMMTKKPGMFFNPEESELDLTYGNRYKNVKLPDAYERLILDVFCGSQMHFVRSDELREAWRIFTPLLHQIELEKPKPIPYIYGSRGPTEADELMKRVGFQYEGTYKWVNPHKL
Sequence of Beta-2 adrenergic receptor (P07550 whole entry): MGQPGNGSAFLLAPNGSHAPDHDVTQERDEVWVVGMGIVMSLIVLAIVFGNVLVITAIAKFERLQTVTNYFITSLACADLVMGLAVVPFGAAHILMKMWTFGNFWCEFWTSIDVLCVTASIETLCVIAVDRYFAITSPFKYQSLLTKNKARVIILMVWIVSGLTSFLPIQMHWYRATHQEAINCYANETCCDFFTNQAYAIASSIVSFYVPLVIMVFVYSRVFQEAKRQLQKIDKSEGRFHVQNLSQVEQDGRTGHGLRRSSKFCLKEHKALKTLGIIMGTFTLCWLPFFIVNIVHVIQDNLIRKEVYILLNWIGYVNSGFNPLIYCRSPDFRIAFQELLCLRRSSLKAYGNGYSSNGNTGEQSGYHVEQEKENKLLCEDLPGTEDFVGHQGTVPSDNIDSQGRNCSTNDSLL
Sequence of Genome polyprotein (P29990 2492-3391 limits assumed): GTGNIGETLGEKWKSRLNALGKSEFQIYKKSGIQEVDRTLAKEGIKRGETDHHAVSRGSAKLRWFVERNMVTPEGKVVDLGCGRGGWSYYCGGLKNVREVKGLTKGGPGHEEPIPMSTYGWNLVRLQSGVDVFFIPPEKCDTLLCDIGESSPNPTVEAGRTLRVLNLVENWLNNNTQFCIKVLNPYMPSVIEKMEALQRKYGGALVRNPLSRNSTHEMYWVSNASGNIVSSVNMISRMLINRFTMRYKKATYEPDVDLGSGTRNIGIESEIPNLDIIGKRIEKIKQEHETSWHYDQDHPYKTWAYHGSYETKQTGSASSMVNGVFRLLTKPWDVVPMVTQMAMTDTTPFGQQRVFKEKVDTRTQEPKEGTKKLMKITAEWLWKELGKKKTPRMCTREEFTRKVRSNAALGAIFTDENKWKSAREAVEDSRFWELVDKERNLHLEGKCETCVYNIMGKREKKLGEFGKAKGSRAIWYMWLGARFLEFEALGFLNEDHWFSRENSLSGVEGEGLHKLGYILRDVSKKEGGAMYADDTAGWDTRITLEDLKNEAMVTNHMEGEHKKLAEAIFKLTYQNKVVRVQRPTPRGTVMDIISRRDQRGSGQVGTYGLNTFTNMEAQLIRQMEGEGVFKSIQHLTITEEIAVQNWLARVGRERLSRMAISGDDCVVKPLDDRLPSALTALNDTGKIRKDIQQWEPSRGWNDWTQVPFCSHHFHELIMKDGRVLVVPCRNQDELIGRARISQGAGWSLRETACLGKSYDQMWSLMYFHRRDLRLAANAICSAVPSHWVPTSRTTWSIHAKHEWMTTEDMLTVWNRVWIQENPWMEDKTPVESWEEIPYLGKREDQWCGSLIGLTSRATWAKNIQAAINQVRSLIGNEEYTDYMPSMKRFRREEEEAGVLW
Sequence of Cytochrome P450 3A4 (P08684 whole entry): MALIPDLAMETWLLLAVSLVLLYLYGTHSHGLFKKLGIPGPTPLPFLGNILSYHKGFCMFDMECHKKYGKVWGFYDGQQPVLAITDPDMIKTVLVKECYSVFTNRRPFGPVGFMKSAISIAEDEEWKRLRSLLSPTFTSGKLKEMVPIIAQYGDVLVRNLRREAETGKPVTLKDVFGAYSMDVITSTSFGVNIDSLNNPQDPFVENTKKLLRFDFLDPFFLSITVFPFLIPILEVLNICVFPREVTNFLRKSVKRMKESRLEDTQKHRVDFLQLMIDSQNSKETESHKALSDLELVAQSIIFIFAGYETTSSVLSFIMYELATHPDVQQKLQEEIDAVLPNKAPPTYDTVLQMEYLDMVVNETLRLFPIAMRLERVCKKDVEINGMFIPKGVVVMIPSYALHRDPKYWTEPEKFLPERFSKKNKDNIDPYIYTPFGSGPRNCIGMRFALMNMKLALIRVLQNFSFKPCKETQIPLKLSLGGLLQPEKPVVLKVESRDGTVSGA

CN(C)c1cc(NC(=O)CNC(C)(C)C)c2ccccc2n1
AC50 [1]: 16.4 µM (active)

COC(=O)C/C=C\[C@@H](C)[C@@H](/C=N\OC[C@@H](O)COCc1ccco1)NS(=O)(=O)c1ccc(C)cc1
AC50 (Cytochrome P450 2D6): inconclusive

CC[C@]1(O)C[C@H]2CN(CCc3c([nH]c4ccccc34)[C@](C(=O)OC)(c3cc4c(cc3OC)N(C=O)[C@H]3[C@@](O)(C(=O)OC)[C@H](OC(C)=O)[C@@]5(CC)C=CCN6CC[C@]43[C@H]65)C2)C1
AC50 (Cytochrome P450 2D6): inconclusive

CC1CCc2[nH]c3ccc(C(=O)N(C)CC(=O)Nc4ccccc4C(F)(F)F)cc3c2C1 (centres undefined)
IC50 [2]: > 80 µM (inactive)

CCOC(=O)CN1C(=O)NC2NC(=O)NC21 (centres undefined)
IC50 [3]: 23.8 µM (inactive)

O=C(O)COc1ccccc1/C=C1\C(=O)NC(=O)N(CCC2=CCCCC2)C1=O
IC50 (Genome polyprotein): > 100 µM (active)

COCCc1ncc(CN2CCC(C(=O)Nc3ccc(-n4cccn4)cc3)CC2)cn1
EC50 [4]: 1.29 µM (active)

CC(=O)c1cc(NC(=O)c2cccc(C(F)(F)F)c2)c(=O)oc1/C=C/N(C)C
AC50 (Cytochrome P450 3A4): 6.31 µM (inconclusive)
EC50 [5]: 5.91 µM (active)
EC50 [6]: 22.2 µM (inactive)
EC50 [7]: > 300 µM (inconclusive)
AC50 (Cytochrome P450 2C9): inconclusive
EC50 [8]: > 300 µM (not active)
EC50 [9]: > 99 µM (inactive)

O=C(NCCCn1ccnc1)C(=O)NCC(c1ccco1)N1CCN(c2ccc(F)cc2)CC1 (centres undefined)
AC50 [10]: 99.3 µM (active)

CCC1(CC)C(=O)C2=C3C1[C@H](C(=O)OC)C=C(C(=O)OC)C[C@H]3n1c(=O)n(-c3ccccc3)c(=O)n1[C@H]2C (some centres undefined)
IC50 [3]: 22.4 µM (inactive)

COc1ccc(-c2cc(-c3ccc(Cl)cc3)c(C#N)c(SCC(=O)O)n2)cc1
IC50 (Genome polyprotein): 50 µM (active)

N#Cc1cc(-c2ccccc2)nnc1Oc1ccccc1Cl
EC50 [4]: 0.173 µM (active)

CCc1cc(-c2n[nH]c(C)c2-c2nc3ccccc3n2C)c(O)cc1O
AC50 (Paired box protein Pax-8): 40.6 µM (active)
IC50 [2]: > 80 µM (inactive)

CCOC(=O)c1cnc2c(CC)cccc2c1NCCCN1CCOCC1
AC50 [1]: 21.6 µM (active)

Cc1cc(C)n(-c2nc3c(c(=O)[nH]c(=O)n3C)n2CC(C)C)n1
AC50 (Cytochrome P450 2D6): inconclusive
AC50 (Cytochrome P450 2C19): inconclusive

COC(=O)C/C=C\[C@@H](C)[C@@H](/C=N\OC[C@@H](O)[C@H]1O[C@H]2OC(C)(C)O[C@H]2[C@@H]1O)OC
AC50 (Cytochrome P450 3A4): 5.01 µM (inconclusive)
AC50 (Cytochrome P450 2D6): inconclusive

CCOC(=O)CCCCCC(=O)Nc1ccc2c(c1)C(=O)N([C@H](C)CO)C[C@H](C)[C@@H](CN(C)C(=O)Nc1ccccc1)OCCCC[C@@H](C)O2
IC50 [3]: 30.8 µM (inactive)

Cc1ccc2nc(SCC(=O)N/N=C/c3ccco3)cc(C)c2c1
IC50 [2]: 41.8 µM (inactive)

C/C(Cn1nnc([N+](=O)[O-])n1)=N\NC(=O)c1ccc(Cl)c(Cl)c1
IC50 (HEK293 [11]): > 20 µM (inactive)
IC50 (HEK293 [12]): > 20 µM (inactive)
EC50 [13]: > 60 µM (not active)
IC50 (HEK293 [14]): > 20 µM (inactive)
EC50 [15]: 0.184 µM (active)
EC50 [16]: 4.92 µM (active)
IC50 [2]: > 80 µM (inactive)
IC50 (HEK293 [17]): 18.5 µM (active)
EC50 (HEK293 [18]): > 20 µM (inactive)

COc1ccc([N+](=O)[O-])cc1/C=N/NC(=O)CNC(=O)c1cccc(F)c1
IC50 (Fatty acid synthase [19]): 10.3 µM (active)
AC50 [10]: 87.2 µM (active)
IC50 (Fatty acid synthase [20]): 6.76 µM (active)
